Reference: patent publication US20260232740A1, “COMBINATIONS COMPRISING VITAMIN B2 AND LACTOBACILLUS RHAMNOSUS” (DSM IP Assets B.V., priority 2022, published 2026)

Columns and labels:
Bifidobacteriaceae = assay: Long-term SHIME fermentation (colon model), 16S rRNA gene sequencing: relative abundance of Bifidobacteriaceae in mucus of transverse colon; parameters: species or system human; conditions: relative abundance (%), end of three-week treatment vs end of control period (n=3), probiotic 1*1010 CFU/reactor, vitamin B2 10 mg/day, p<0.05
Source text: (§1) The typical reactor setup of the SHIMER, representing the gastrointestinal tract of the adult human, was described by Molly et al. (1993) Applied Microbiology and Biotechnology 39 (2): 254-258. Inoculum preparation, retention time, pH, temperature settings and reactor feed composition were previously described by Possemiers et al. (2004) FEMS Microbiol Ecol. 49 (3): 495-507. Compared to the typical setup of the SHIME, the long-term SHIME experiment used for this example included some adaptations. In one reactor, at first, the conditions of the stomach were simulated, before being changed by the computer to conditions simulating the small intestine. […]
(§2) Samples for quantitative 16S-targeted Illumina sequencing were collected 3×/week during the last week of the control and treatment period. […] The obtained high-resolution proportional phylogenetic information (i.e., proportional abundances (%)) was combined with an accurate quantification of total bacterial cells via flow cytometry to obtain quantitative data at phylum, family, and species level. […] Samples were analyzed on a BD Facsverse (BDBiosciences, Erembodegem, Belgium) using the high-flow-rate setting and bacteria were separated from medium debris and signal noise by applying a threshold level of 200 on the SYTO channel. […]

[1] = test system: Bifidobacterium adolescentis; assay: Long-term SHIME fermentation (colon model), 16S rRNA gene sequencing and flow cytometry: levels of Bifidobacterium adolescentis in lumen of transverse colon; parameters: species or system human; conditions: average levels (log cells/mL), end of three-week treatment vs end of control period (n=3), probiotic 1*1010 CFU/reactor, vitamin B2 10 mg/day, p<0.05
Source text: as §1, §2

Question: Which results are given for Lactobacillus rhamnosus GG?
Answer: abundance of Bifidobacteriaceae compared to the control (Bifidobacteriaceae): did not significantly change; abundance of Bifidobacterium adolescentis compared to the control [1]: did not significantly change
